Values of other authors, collected in PMC9503778, “Targeted Isolation of Antibiotic Brominated Alkaloids from the Marine Sponge Pseudoceratina durissima Using Virtual Screening and Molecular Networking” (Marine Drugs, 2022).

What was measured:
S. aureus = system: S. aureus; parameters: method as in PMID 8297426; details: tested at 100 µg/mL; cited from earlier work
HIV = system: HIV; parameters: method as in earlier work; details: read-out: IC50 against HIV; cited from earlier work

**Q.** What does the source list for `COC1=C(Br)[C@H](O)[C@](O)(CC#N)C=C1Br` [Compound 1, (+)-aeroplysinin-1]?
**A.** inhibition zones in disc diffusion assays against S. aureus (S. aureus): large inhibition zones; IC50 (HIV): 14.6 µM
